Target: human recombinant H-PGDS (Homo sapiens, UniProt O60760)
Experiment: Fluorescence intensity h-PGDS TBA enzyme assay
Type: biochemical
Conditions: Examples up to 622 (and 3a, 3b)

human recombinant H-PGDS, sequence (O60760 whole entry): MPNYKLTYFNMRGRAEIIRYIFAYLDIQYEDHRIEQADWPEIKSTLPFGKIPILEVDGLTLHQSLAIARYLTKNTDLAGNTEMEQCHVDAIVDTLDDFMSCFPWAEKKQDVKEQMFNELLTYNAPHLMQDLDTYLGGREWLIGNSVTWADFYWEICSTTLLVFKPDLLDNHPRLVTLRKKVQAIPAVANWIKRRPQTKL

IC50 [nM] | Compound
2.59 | O=C(NC1CCN(Cc2c[nH]nc2-c2ccc(F)cc2)CC1)c1ccc(-c2cccc(F)c2)nc1 [Example 187, 6-(3-Fluorophenyl)-N-(1-{[3-(4-fluorophenyl)-1H-pyrazol-4-yl]methyl}piperidin-4-yl)nicotinamide]
2.25 | O=C(NC1CCN(Cc2cccc(-c3ccccn3)c2)CC1)c1ccc(-c2cccc(F)c2)nc1 [Example 188, 6-(3-Fluorophenyl)-N-[1-(3-pyridin-2-ylbenzyl)piperidin-4-yl]nicotinamide]
0.502 | O=C(NC1CCN(Cc2ccnc3ccccc23)CC1)c1ccc(-c2cccc(F)c2)nc1 [Example 189, 6-(3-Fluorophenyl)-N-[1-(quinolin-4-ylmethyl)piperidin-4-yl]nicotinamide]
1.83 | O=C(NC1CCN(Cc2c[nH]cn2)CC1)c1ccc(-c2cccc(F)c2)nc1 [Example 190, 6-(3-Fluorophenyl)-N-[1-(1H-imidazol-5-ylmethyl)piperidin-4-yl]nicotinamide]
0.171 | Cn1cc(Cl)c(CN2CCC(NC(=O)c3ccc(-c4cccc(F)c4)nc3)CC2)n1 [Example 191, N-{1-[(4-Chloro-1-methyl-1H-pyrazol-3-yl)methyl]piperidin-4-yl}-6-(3-fluorophenyl)nicotinamide]
0.701 | COc1cc(CN2CCC(NC(=O)c3ccc(-c4cccc(F)c4)nc3)CC2)ccc1F [Example 192, N-[1-(4-Fluoro-3-methoxybenzyl)piperidin-4-yl]-6-(3-fluorophenyl)nicotinamide]
0.768 | O=C(NC1CCN(Cc2ccc(F)c(F)c2)CC1)c1ccc(-c2cccc(F)c2)nc1 [Example 193, N-[1-(3,4-difluorobenzyl)piperidin-4-yl]-6-(3-fluorophenyl)nicotinamide]
3.5 | O=C(CN1CCC(NC(=O)c2ccc(-c3cccc(F)c3)nc2)CC1)c1ccccc1 [Example 194, 6-(3-Fluorophenyl)-N-[1-(2-oxo-2-phenylethyl)piperidin-4-yl]nicotinamide]
0.194 | Cn1nc(-c2ccccc2)c(CN2CCC(NC(=O)c3ccc(-c4cccc(F)c4)nc3)CC2)c1Cl [Example 195, N-{1-[(5-Chloro-1-methyl-3-phenyl-1H-pyrazol-4-yl)methyl]piperidin-4-yl}-6-(3-fluorophenyl)nicotinamide]
1.35 | Cn1cc(CN2CCC(NC(=O)c3ccc(-c4cccc(F)c4)nc3)CC2)cn1 [Example 196, 6-(3-Fluorophenyl)-N-{1-[(1-methyl-1H-pyrazol-4-yl)methyl]piperidin-4-yl}nicotinamide]
0.578 | O=C(NC1CCN(Cc2cccc3cccnc23)CC1)c1ccc(-c2cccc(F)c2)nc1 [Example 197, 6-(3-Fluorophenyl)-N-[1-(quinolin-8-ylmethyl)piperidin-4-yl]nicotinamide]
1.04 | O=C(NC1CCN(Cc2cccc(-c3cnccn3)c2)CC1)c1ccc(-c2cccc(F)c2)nc1 [Example 198, 6-(3-Fluorophenyl)-N-[1-(3-pyrazin-2-ylbenzyl)piperidin-4-yl]nicotinamide]
2.7 | CCCCc1nc(CN2CCC(NC(=O)c3ccc(-c4cccc(F)c4)nc3)CC2)c[nH]1 [Example 199, N-{1-[(2-Butyl-1H-imidazol-4-yl)methyl]piperidin-4-yl}-6-(3-fluorophenyl)nicotinamide]
1.61 | O=C(NC1CCN(Cc2ccc3c(c2)OCCCO3)CC1)c1ccc(-c2cccc(F)c2)nc1 [Example 200, N-[1-(3,4-Dihydro-2H-15-benzodioxepin-7-ylmethyl)piperidin-4-yl]-6-(3-fluorophenyl)nicotinamide]
1.93 | O=C(NC1CCN(Cc2ccc(-c3ccccn3)cc2)CC1)c1ccc(-c2cccc(F)c2)nc1 [Example 201, 6-(3-Fluorophenyl)-N-[1-(4-pyridin-2-ylbenzyl)piperidin-4-yl]nicotinamide]
1.17 | Cc1ccc(CN2CCC(NC(=O)c3ccc(-c4cccc(F)c4)nc3)CC2)cc1F [Example 202, N-[1-(3-Fluoro-4-methylbenzyl)piperidin-4-yl]-6-(3-fluorophenyl)nicotinamide]
2.17 | CC(C)(C)OC(=O)NC1(CN2CCC(NC(=O)c3ccc(-c4cccc(F)c4)nc3)CC2)CC1 [Example 203, tert-Butyl(1-{[4-({[6-(3-fluorophenyl)pyridin-3-yl]carbonyl}amino)piperidin-1-yl]methyl}cyclopropyl)carbamate]
0.067 | COc1ccc(CN2CCC(NC(=O)c3ccc(-c4cccc(F)c4)nc3)CC2)cc1Cl [Example 204, N-[1-(3-Chloro-4-methoxybenzyl)piperidin-4-yl]-6-(3-fluorophenyl)nicotinamide]
0.238 | COc1ccc(OC)c(CN2CCC(NC(=O)c3ccc(-c4cccc(F)c4)nc3)CC2)c1 [Example 205, N-[1-(2,5-Dimethoxybenzyl)piperidin-4-yl]-6-(3-fluorophenyl)nicotinamide]
1.84 | CC(C)Oc1cccc(CN2CCC(NC(=O)c3ccc(-c4cccc(F)c4)nc3)CC2)c1 [Example 206, 6-(3-Fluorophenyl)-N-[1-(3-isopropoxybenzyl)piperidin-4-yl]nicotinamide]
1.59 | Cn1c(CN2CCC(NC(=O)c3ccc(-c4cccc(F)c4)nc3)CC2)cc2ccccc21 [Example 207, 6-(3-Fluorophenyl)-N-{1-[(1-methyl-1H-indol-2-yl)methyl]piperidin-4-yl}nicotinamide]
5.98 | CCc1ncc(CN2CCC(NC(=O)c3ccc(-c4cccc(F)c4)nc3)CC2)[nH]1 [Example 208, N-{1-[(2-Ethyl-1H-imidazol-5-yl)methyl]piperidin-4-yl}-6-(3-fluorophenyl)nicotinamide]
1.37 | Cc1nn(C(C)(C)C)c(C)c1CN1CCC(NC(=O)c2ccc(-c3cccc(F)c3)nc2)CC1 [Example 209, N-{1-[(1-tert-Butyl-3,5-dimethyl-1H-pyrazol-4-yl)methyl]piperidin-4-yl}-6-(3-fluorophenyl)nicotinamide]
0.46 | O=C(NC1CCN(Cc2ccc(-n3cccn3)cc2)CC1)c1ccc(-c2cccc(F)c2)nc1 [Example 210, 6-(3-Fluorophenyl)-N-{1-[4-(1H-pyrazol-1-yl)benzyl]piperidin-4-yl}nicotinamide]
0.453 | COc1cccc(F)c1CN1CCC(NC(=O)c2ccc(-c3cccc(F)c3)nc2)CC1 [Example 211, N-[1-(2-Fluoro-6-methoxybenzyl)piperidin-4-yl]-6-(3-fluorophenyl)nicotinamide]
1.4 | COc1ccc(CC2CC(NC(=O)c3ccc(-c4cccc(F)c4)nc3)CCN2)cc1OC (centres unmarked) [Example 212, N-[2-(3,4-Dimethoxybenzyl)piperidin-4-yl]-6-(3-fluorophenyl)nicotinamide]
0.469 | N#Cc1ccccc1CN1CCC(NC(=O)c2ccc(-c3cccc(F)c3)nc2)CC1 [Example 213, N-[1-(2-Cyanobenzyl)piperidin-4-yl]-6-(3-fluorophenyl)nicotinamide]
5.55 | CN(C)CCCOc1ccc(CN2CCC(NC(=O)c3ccc(-c4cccc(F)c4)nc3)CC2)cc1 [Example 214, N-(1-{4-[3-(Dimethylamino)propoxy]benzyl}piperidin-4-yl)-6-(3-fluorophenyl)nicotinamide]
0.38 | Cn1ccnc1CN1CCC(NC(=O)c2ccc(-c3cccc(F)c3)nc2)CC1 [Example 215, 6-(3-Fluorophenyl)-N-{1-[(1-methyl-1H-imidazol-2-yl)methyl]piperidin-4-yl}nicotinamide]
